The values that follow come from patent US20230026969A1, “Oligopeptide, Testing Kit Thereof And Medical Composition Thereof” (China Medical University, priority 2019, published 2023).

In assay [1] the test system is hPi-GL. The experiment in a line: Immunocytofluorescent staining of phage clones on hPi-GL chondrocyte cell line. It counts as cell-based, human. Particulars: phage clones on fixed hPi-GL cells. Here is the method:
For examination of those phage clones, slide-cultured hPi-GL cells were fixed with 4% paraformaldehyde in PBS at room temperature for 15 mins, washed with PBS and permeabilized with 0.1% Triton X-100 at room temperature for 30 mins, blocked for nonspecific binding with 1% BSA/PBST. The slide-cultured hPi-GL cells were separately incubated with 4×10^8 pfu, 8×10^8 pfu, and […] selected phage clones at 4° C. for 1 hour. After removing the unbound phages by washing, the cells were incubated with anti-M13 mouse mAb (GE Healthcare, Milwaukee, Wis., USA) as the primary antibody and R-Phycoerythrin-AffiniPure F(ab′)2 fragment goat anti-mouse IgG (Jackson ImmunoResearch Inc.) as the secondary antibody at room temperature for 1 hour, respectively. Then, washed with PBST, and counterstained with Hoechst 33258 (1 μg/ml; Sigma-Aldrich) at room temperature for 10 mins. The cells were analyzed for phage binding and localization by fluorescence using confocal microscopy (Zeiss LSM 700).

Assay [2] concerns meniscus. The experiment in a line: Immunostaining of human OA tissue sections with phage clones: meniscus. The class given is binding. The conditions noted are these: HRP-labeled phage clones. The source says: (§1) To examine localization of the targeting phages bound to articular tissues, human OA cartilage specimens were used for examination. Paraffin-embedded human OA tissue, synovium, and meniscus sections were retrieved from specimens of human OA surgical treatment under the approval of the Institutional Review Board of China Medical University Hospital (IRB no. CMUH108-REC1-046 and T-CMU-23728). Written informed consent was obtained, and all human tissue samples were coded for anonymity. All sections were dried, deparaffinized and rehydrated by standard protocols, and subsequently incubated with C5-87, C5-66, C5-83, C5-91, C5-24, E5-8, and C5-46 phage clones, or the control phage (5×10^8 pfu/μl). After washing, the sections were treated with anti-M13 mouse mAb (GE Healthcare) for 1 hour at room temperature. Following several washing steps, a biotin-free super sensitive polymer-HRP detection system (Biogenex, Fremont, Calif., USA) was used to detect immunoreactivity. The slides were lightly counterstained with hematoxylin, mounted with Aquatex (Merck, Darmstadt, Germany), and examined by light microscopy.

For assay [3], the system named is synovium. As to the kind of experiment: Immunostaining of human OA tissue sections with phage clones: synovium. It counts as binding. Particulars: HRP-labeled phage clones.
Excerpt: as §1

In assay [4] the test system is OA cartilage. The experiment in a line: Immunostaining of human OA tissue sections with phage clones: cartilage. The class given is binding. The conditions noted are these: for binding activity to cartilage (DAB intensity): HRP-labeled phage clones.
Excerpt: as §1

Assay [5] relates to OA cartilage. The experiment in a line: Intravital two-photon imaging of rhodamine-labeled peptides injected into rat joints. It counts as in vivo. Particulars: for rhodamine fluorescence (red dots) in cartilage: intra-articular, two-photon microscopy. On the procedure: The OA in rat model was established as previous described with slightly modification. In brief, the male SD rats≅300 grams in weight were used in this study. All animal experiments were approved by the China Medical University Committee for the Use and Care of Animals. Rats were kept under standard laboratory conditions (temperature 24° C., 12 h light-dark cycle), fed standard diet and drank tap water. Rats were anesthetized with 2.5% isofluorane (Abott, USA) in 70 ml/min flow rate before every injection. Rat joint OA was induced in the right knees in each group by injecting 0.2 ml of 4% papain solution (Sigma-Aldrich, USA) with 0.1 ml of 0.03 M cysteine (Sigma-Aldrich, USA) as activator. Same amount of saline was injected into the left knees in each group. Injection was repeated on the fourth and seventh days, respectively, and two weeks after the last papain injection, rat knees were removed for histological analysis to confirm the formation of OA. The established OA model in rats was further used in the following experiments for intraarticular injection.
The rhodamine-labeled C5-24 and scrambled peptides were separately injected into rat joints without (control) or with enzyme-induced OA. The C5-24 and scrambled peptides were chemically synthesized as accordingly (ABI, USA), modified with Biotin-PEG2-Iodoacetyl bridge linker (Thermo Fisher Scientific, USA) in HEPES buffer pH 8.0 through click reaction, further linked with avidin labeled rhodamine (Jacksonlmmuno, USA) and subjected to dialysis in ddH2O in M.W. 4K cut-off to remove the unlabeled rhodamine, further lyophilized and stored in −20° C. Aliquots of 1 μg rhodamine-labeled peptides in 40 μl PBS were used for intraarticular injection with using 30 G syringes.
Rat Knees were removed at 1-day post-injection, and both femoral condyles and tibias were cleaned thoroughly, immersed in PBS and sophisticatedly attached on 3.5 cm dish for 2-photon microscopic observation. The microscope system was operated using a near-infrared femtosecond laser (Mira 900, Coherent, USA) at the central wavelength of 810 nm, 76 MHz pulse repetition rate, and 200 fs pulse width for imaging. […] Thus, the wavelength of SHG from collagen fibers is 405 nm, while the TPEF from collagen, elastin, FAD, and NADH is approximately ranging from 450 to 650 nm. All images were obtained by a laser scanning unit (Fluoview 300, Olympus, Japan), a pair of two objective lenses for both lasers focusing and collection of photons (UPlanSApo 20×/0.75, Olympus, Japan), and two photomultiplier tubes respectively for SHG and TPEF detection (R3896, Hamamatsu, Japan). SHG and TPEF were filtered from the intense excitation laser background by a combination of band-pass filter (FF01-405/10, Semrock, USA) and color glass (BG39, Schott, Germany). And, then splitted by a dichroic mirror (FF435-Di01, Semrock, USA) and forward detected. […] Only the extinction ratio of linear polarization larger than 50:1 and the ellipticity of circular polarization (Imax/Imin) less than 1.1 after the focusing objective lens can then be used for the following two-photon imaging. The acquired images were mainly processed and analyzed with ImageJ/FiJi software (National Institutes of Health, Bethesda, Md., USA).

[6] abbreviates: rhodamine-labeled peptide, OA cartilage.
Where [7] appears, read: rhodamine-labeled peptide, control cartilage.

Turning to “D A Y W H P V W V H D P (DAYWHPVWVHDP; binding to collagen XII; DOMAIN (4)..(8)) [C5-91, 2, from phage display]”, the “binding to hPi-GL (immunocytofluorescent staining, M13-PE)” value in assay [1] is “specific and remarkable binding”. The “binding activity to the meniscus (DAB intensity)” value in assay [2] is on record as “no binding activity”. The “binding activity to the synovium (DAB intensity)” value in assay [3] was “no binding activity”. The “binding activity to cartilage (DAB intensity)” value in assay [4] was “superior binding activity”.

As for “D L Q Y W Y P I W D T H (DLQYWYPIWDTH; binding to collagen XII; DOMAIN (5)..(9); DOMAIN (10)..(12)) [C5-24, 1, from phage display]”, the “overall fluorescent peptides binding area, OA vs control cartilage” value in assay [5] (all slices, FIG. 1b) is given as “significant difference”. In assay [5] (setting [6]), the “depth reached in the OA cartilage (z-axial plane)” value is on record as “at least 50 μm” and the “rhodamine fluorescence (red dots) in cartilage” value (“rhodamine fluorescence” for short) is reported as “red dots were observed”. Also, the “rhodamine fluorescence” value in assay [5] (setting [7]) is on record as “sparse red dots”. Moreover, in assay [1], the “binding to hPi-GL (immunocytofluorescent staining, M13-PE)” value is “specific and remarkable binding”. In addition, the “binding activity to the meniscus (DAB intensity)” value in assay [2] was “no binding activity”. Also, in assay [3], the “binding activity to the synovium (DAB intensity)” value was “no binding activity”. In addition, in assay [4], the “specificity for targeting the territorial region of OA cartilage” value was “best specificity” and the “binding activity to cartilage (DAB intensity)” value is given as “superior binding activity”.

Consider “DYLWQYPDITWH [scrambled peptide, contains all the same amino acids as the original peptide but in new random order, reference compound]”, for which the “rhodamine fluorescence” value in assay [5] (setting [6]) and in assay [5] (setting [7]) was “sparse red dots” in each case. For the same substance, the “ability to bind to OA cartilage” value in assay [5] (scrambled control peptide) is on record as “not able to bind to OA cartilage”.
